Results on one compound are retold here after patent publication US7208628B2, “Compositions and methods for the treatment of hepatitis C virus infection” (Kansas State University Research Foundation, priority 2002, dated 2007).

The experiment addresses binding of HCV-E2 to CD81 on Molt4 T cells (Hepacivirus hominis (Hepatitis C virus), UniProt P27958). Nature of the experiment: HCV-E2/CD81 binding assay on Molt4 T cells, detection with anti-E2 mAb 6F6 and flow cytometry. Also noted: species or system human. The note with it: for ability to inhibit the HCV-E2 binding to CD81, relative activity in words: structure-activity comparison of linker, side chain and ester against the valine benzyl ester I45DC AL-2-140. An excerpt:
Development of a Unique HCV-E2/CD81 Binding Assay. […] The binding of HCV-E2 to CD81 has been reported by several groups (see, e.g. Allander, T., et al., “Hepatitis C virus envelope protein E2 binds to CD81 of tamarins” Virology 277:358–367, 2000). Often those studies involved interactions of purified recombinant proteins. We sought to confirm published findings and to test the ability of HCV-E2 to bind to CD81 expressed on living T cells. Various concentrations of recombinant HCV-E2 (Ala 384 to Lys 715 of the HCV polyprotein produced in CHO cells; Austral Biologicals) was incubated with Molt4 T cells and binding of HCV-E2 to the cells was detected with the anti-E2 monoclonal antibody 6F6 (Austral Biologicals) followed by flow cytometry (FIG. 1). HCV-E2 binding to Molt4 T cells is concentration dependent and easily detectable at concentrations as low as 0.3 μg/mL. This binding assay differs from the assay published by Wünschmann in that the published assay used whole virus and not recombinant […] peptide. (Wünschmann, et al, “Characterization of Hepatitis C Virus (HCV) and HCV E2 Interactions with CD81 and the Low-Density Lipoprotein Receptor” J. Virology 74:10055–10062, 2000).
Effect of I45DCs on HCV-E2 binding to CD81 on T cells. […] Binding was measured by using the novel and sensitive method of the present invention for the detection of binding between the HCV envelope protein E2 and its cellular receptor CD81 on living human T cells. This experimental approach was employed in the evaluation of a series of newly synthesized I45DCs.
HCV-E2 was pre-incubated with or without […] of the indicated compound for 30 minutes at 37° C. prior to addition of HCV-E2 to Molt4 cells and detection as described above. […] The approximate EC50 of 19 was determined by conducting the same type of experiment in the presence of a 1:2 titration of 19 from […] (FIG. 5).
(In general: A flow cytometer gives signals particle by particle.)

Sequence of binding of HCV-E2 to CD81 on Molt4 T cells (P27958 384-715): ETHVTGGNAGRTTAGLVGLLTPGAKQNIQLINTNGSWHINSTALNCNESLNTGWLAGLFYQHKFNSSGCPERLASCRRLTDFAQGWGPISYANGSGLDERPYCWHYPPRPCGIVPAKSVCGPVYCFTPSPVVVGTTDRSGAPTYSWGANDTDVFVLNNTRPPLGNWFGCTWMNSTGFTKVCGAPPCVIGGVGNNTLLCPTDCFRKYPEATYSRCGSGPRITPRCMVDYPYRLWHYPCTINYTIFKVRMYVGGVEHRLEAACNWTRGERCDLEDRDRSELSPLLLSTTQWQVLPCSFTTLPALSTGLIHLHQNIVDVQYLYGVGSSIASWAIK
Sequence of binding of HCV-E2 to CD81 on Molt4 T cells (P60033 whole entry, further chain): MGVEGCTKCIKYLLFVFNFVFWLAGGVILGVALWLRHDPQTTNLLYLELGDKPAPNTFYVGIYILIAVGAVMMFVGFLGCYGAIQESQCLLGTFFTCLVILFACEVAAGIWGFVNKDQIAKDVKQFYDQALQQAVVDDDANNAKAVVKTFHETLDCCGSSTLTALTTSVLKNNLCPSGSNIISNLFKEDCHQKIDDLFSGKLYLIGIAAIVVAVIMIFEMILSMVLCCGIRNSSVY

For `CCN(CCN(CC)C(=O)c1nc[nH]c1C(=O)N[C@H](C(=O)OCc1ccccc1)C(C)C)C(=O)c1nc[nH]c1C(=O)N[C@H](C(=O)OCc1ccccc1)C(C)C` [Compound 19], the “ability to inhibit the HCV-E2 binding to CD81, relative activity in words” value is listed as “most active compound to date”. For the same compound, the IC50 (commonly the midpoint of a concentration-inhibition curve) (CD81 expressed on human T cells, 1:2 titration of compound, FIG. 5, read-out: approximate IC50 value for blocking binding of HCV-E2 to CD81) is roughly 45 µM. The “bioactivity in the HCV-E2 binding assay” value (HCV-E2 pre-incubated with 500 mM compound for 30 minutes at 37° C. before addition to Molt4 cells) was “bioactivity in the sub-millimolar range”. Besides, for the setting “listed as AL-2-140”, the “ability to inhibit the HCV-E2 binding to CD81, relative activity in words” value is recorded as “most active”.
